Measured values as given in patent US20120277312A1, “Ethylgallate and Related Compounds as a Treatment for Sepsis and Septic Shock” (priority 2009, published 2012).

Assays:
[1] = Hydrogen peroxide scavenging (Amplex Red assay, electrochemical techniques, glucosidase/glucose assay); type: biochemical; conditions: multiple methodologies
From the text: (§1) This generation appears to involve the mechanism described by Wentworth et al in which proteins can utilize water as a catalyst to generate H2O2 (12) Once formed by lysozyme, H2O2 then reacts with intrinsic catalase to form a species of catalase termed Compound I (2) Compound I then acts to generate cyclic-guanosine monophosphate which in turn causes vasodilation. […] These as well as other mechanisms may account for the efficacy of ethyl-gallate treatment in septic shock.

[2] = molecular target: T1, catalase (Homo sapiens, UniProt P04040); test: Conversion of catalase to compound I (wave-scan spectroscopy); type: biochemical
T1 sequence (P04040 2-527 limits assumed): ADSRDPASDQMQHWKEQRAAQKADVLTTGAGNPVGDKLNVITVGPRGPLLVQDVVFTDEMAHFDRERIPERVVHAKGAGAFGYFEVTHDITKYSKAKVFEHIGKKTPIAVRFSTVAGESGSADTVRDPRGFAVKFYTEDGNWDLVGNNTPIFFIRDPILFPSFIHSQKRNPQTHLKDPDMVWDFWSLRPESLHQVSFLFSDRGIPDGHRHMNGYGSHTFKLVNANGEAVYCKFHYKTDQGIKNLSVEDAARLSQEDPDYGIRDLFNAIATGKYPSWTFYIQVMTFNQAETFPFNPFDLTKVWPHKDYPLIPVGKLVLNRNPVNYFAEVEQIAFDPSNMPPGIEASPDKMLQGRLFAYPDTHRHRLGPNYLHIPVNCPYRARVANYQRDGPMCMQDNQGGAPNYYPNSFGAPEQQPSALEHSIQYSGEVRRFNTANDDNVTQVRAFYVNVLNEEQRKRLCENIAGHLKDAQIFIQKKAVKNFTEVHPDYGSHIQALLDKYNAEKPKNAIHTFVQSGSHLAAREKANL
From the text: as §1

[3] = system: lysozyme's vasodilatory effect in canine carotid artery preparation; test: Lysozyme-induced vasodilation in canine carotid artery preparation (in-vitro)
Protocol: Lysozyme produces vasodilation by intrinsically generating hydrogen peroxide (H2O2) that leads to activation of signaling pathways resulting in these hemodynamic effects (7).
Ethyl gallate is added to food as an antioxidant. It is the ethyl ester of gallic acid. Though found naturally in a variety of plant sources including walnuts (8), ethyl gallate is produced from gallic acid and ethanol (9). […] It is of note that if a substance could not inhibit lysozyme's effect in-vitro, then it would be worthless to pursue an in-vivo study.

[4] = system: POX-induced vasodilation in carotid and superior mesenteric arterial preparations; test: Peroxacetic acid (POX)-induced vasodilation in carotid and superior mesenteric arterial preparations; set-up: species or system canine
From the text: POX is a hydroperoxide (slightly different from the molecule of hydrogen peroxide) that also may be released in septic shock by macrophages and inflammatory cells. […] However, the pathway by which POX caused vasodilation is much different than that caused by lysozyme. […] To some extent, therefore, the improvement in hemodynamics previously observed when ethyl-gallate was infused in our in-vivo study could have also been related to ethyl-gallate's inhibition of the POX pathway in addition to ethyl-gallate's inhibitory-effect on lysozyme mediated pathways.
The only similarity found between lysozyme and POX is that POX's mechanism of action is also independent of the endothelium and nitric oxide formation, since we could not prevent POX's vasodilatory effect by removal of the endothelium or by nitric oxide inhibition. In contrast to lysozyme, POX seems to cause vasodilation is by activation of an enzyme in the vascular tissue called prostaglandin H synthase (PHS). PHS has an important mechanism of action, in that after activation by hydroperoxides (such as POX), it can in turn activate the cyclooxygenase pathway leading to vasodilation.

[5] = system: non-septic dog; test: Ethyl gallate infusion in non-septic dogs; type: in vivo
From the text: The effect of ethyl-gallate treatment on hemodynamics in the non-septic animal was different from that found in the septic animal. In this protocol, 5 grams of ethyl-gallate were given in a similar manner over the course of the 5 hr treatment-phase of the study.
We have thus far studied 5 dogs in septic shock in which ethyl gallate was infused. We have compared the results obtained in this group with those found in septic animals (n=5) in which this treatment was not given. In addition, in preliminary experiments, we have looked at the effect of ethyl gallate infusion on hemodynamics in non-septic animals (n=3). In a time control non-septic group in which placebo (normal saline solution) was given, we have studied one animal.
The purpose of this study was to determine whether ethyl-gallate could reverse the fall in MAP that occurs in this sepsis model. Ethyl gallate was infused after MAP pressure fell approximately 30 to 40% from the baseline value in which this decline in MAP was not responsive to volume infusion to return Pwp to the baseline value (septic shock condition). This approach would be consistent with that observed in the clinical situation in which vasopressors, such as norepinephrine would be given at this interval. In the two sepsis groups, the animals were allocated in randomized fashion in which one received ethyl-gallate and volume infusion, while in the other, volume infusion alone was given. In the two non-sepsis groups, one received ethyl-gallate while the other received placebo treatment. In the non-sepsis groups, only maintenance volume for anesthesia and for placebo drugs was given over the course of the experiment.

[6] = system: lysozyme-induced myocardial depression; test: Lysozyme-induced myocardial depression, in-vitro experiments; conditions: previous in-vitro experiments
From the text: Usually, when one increases the blood pressure in septic shock, there is the potential for stroke-volume and cardiac out to fall, since the heart has to pump against a greater load. Particularly, in septic shock, cardiac function is depressed.

[7] = non-septic dogs, 5 grams over 5 hr
[8] = non-septic dogs, ethyl-gallate infusion

CCOC(=O)c1cc(O)c(O)c(O)c1 [ethyl gallate]
scavenging of hydrogen peroxide [1]: can scavenge
inhibition of degradation of catalase to compound I [2]: can inhibit
prevention of vasodilation caused by lysozyme ([3]; canine carotid artery and superior mesenteric arterial preparations): prevented
block of lysozyme's vasodilatory effect ([3]; canine carotid artery preparation, in-vitro): blocked
inhibition of vasodilation caused by POX [4]: inhibited
heart rate effect ([5]; non-septic dog, after infusion, FIG. 7): slight tachycardia
SVR as compared with pre-treatment [5, 7]: decrease
change in MAP [5, 7]: did not cause a change
CO [5, 8]: appeared to increase
SV [5, 8]: appeared to increase
SW [5, 8]: appeared to increase
prevention of lysozyme-induced myocardial depression [6]: prevents
